Values of other authors in the CATMoS acute toxicity set (Mansouri et al. 2021).
Several values for one entry are separate records, joined by “and”; a condition that tells them apart may be missing. Equal values may be shown once.

Assay: rat acute oral toxicity
Settings: in vivo

Structure (SMILES)	LD50
CC1(C)Cc2cccc(OC(=O)NCSc3ccc(C(C)(C)C)cc3)c2O1	125 mg/kg
[O-][n+]1c2ccccc2nc2ccccc21	6600 mg/kg
C=CCc1ccccc1OCC(O)CNC(C)C (centres undefined)	590 mg/kg
N=C(N)NCCC[C@H](N)C(=O)O	12000 mg/kg
N#Cc1sc2c(=O)c3ccccc3c(=O)c=2sc1C#N	638 mg/kg
Oc1cc(O)cc(Sc2cc(O)cc(O)c2)c1	4290 mg/kg
CC(=O)OCCC(C)CCC=C(C)C (centres undefined)	6800 mg/kg
CCc1cc2c(cc1C=O)C(C)(C)CCC2(C)C	3200 mg/kg
CC(Oc1cccc2ccccc12)C(N)N=O (centres undefined)	108 mg/kg
CC(C)=CC1C(C(=O)Cl)C1(C)C (centres undefined)	400 mg/kg
O=C(CF)OCCOC(=O)CF	2.2 mg/kg
CC(=O)Nc1cc(Cl)c([N+](=O)[O-])cc1Cl	2830 mg/kg
CN1CCC(=C2c3ccccc3Oc3ccc(Cl)cc32)CC1	319 mg/kg
COc1ccc(CN2CCN(C(c3ccc(F)cc3)c3ccc(F)cc3)CC2)c(OC)c1OC	307 mg/kg
Cc1c(I)c(=O)n(-c2ccccc2)n1C	2060 mg/kg
C1OC1CSCC1CO1 (centres undefined)	32 mg/kg
CCCCCCCCCOC(=O)C1=CNC=C(C(=O)NC2CCCC2)C1c1ccccc1[N+](=O)[O-] (centres undefined)	10 mg/kg
COc1cc(OC)nc(NC(=O)NS(=O)(=O)c2cc(NC=O)ccc2C(=O)N(C)C)n1	3880 mg/kg
CC(=O)OCC=C(C)C	2900 mg/kg
CN(C)/N=N/c1ccccc1C(=N)O	56 mg/kg
CCC(C)(C)OC(=O)Nc1ccco1	190 mg/kg
C[N+]1(C)CCCC(OC(=O)C(O)(c2ccccc2)c2ccccc2)C1 (centres undefined)	742 mg/kg
CCCCC(CC)COP(=O)(OCC(CC)CCCC)OCC(CC)CCCC (centres undefined)	37000 mg/kg
CC1=CCC(C(C)C)C=C1 (centres undefined)	5700 mg/kg
CCCCC(CC)COCC1CO1 (centres undefined)	7800 mg/kg
C=CCOc1ccccc1C(=O)N(CC)CC	325 mg/kg

Structure (SMILES)	LD50
CCCn1c(=O)c2[nH]c(C)nc2n(CC(C)C)c1=O	19 mg/kg
CCC(O)CCO (centres undefined)	20000 mg/kg
O=C1C=CC(=O)N1c1c(F)c(F)c(F)c(N2C(=O)C=CC2=O)c1F	2100 mg/kg
O=C1CCC(N2C(=O)c3ccccc3C2=O)C(=O)N1 (centres undefined)	113 mg/kg
COC(=O)c1cccc(C)c1O	3840 mg/kg
CN=C(O)O/N=C1/SCOC1(C)C	2 mg/kg
Cc1cc(C)cc(C(=O)Cl)c1	3160 mg/kg
COP1(=S)OCc2ccccc2O1 (centres undefined)	102 mg/kg
CC(C)OC(=O)c1ccccc1	3730 mg/kg
FC(F)(F)c1nc2c(Br)c(Cl)c(Cl)c(Br)c2[nH]1	3.43 mg/kg
CC(N)=[Se]	10 mg/kg
CC(=O)OC1CC(C)CCC1C(C)C (centres undefined)	7620 mg/kg
CCCCCCCCCCCCCCCN	660 mg/kg
COc1ccc2c(c1)c(CC(=O)NO)c(C)n2C(=O)c1ccc(Cl)cc1	78 mg/kg
CN(C)N=Nc1ccc(-c2ccccc2)cc1	347 mg/kg
OCCOCCN1CCN(C(c2ccccc2)c2ccc(Cl)cc2)CC1 (centres undefined)	690 mg/kg and 950 mg/kg and 840 mg/kg
C=CC(N)CCC(=O)O (centres undefined)	3000 mg/kg
CC(C)=CC(N)=O	3560 mg/kg
CCCCC(C)C(C)C(C)C(C)=O (centres undefined)	8470 mg/kg
O=[N+]([O-])c1cccc(C(F)(F)F)c1	610 mg/kg
OC(COc1ccccc1)COc1ccccc1	1450 mg/kg
O=S(=O)(c1cccc2cnccc12)N1CCCNCC1	335 mg/kg
COP(=S)(OC)Oc1ccc(S(N)(=O)=O)cc1	160 mg/kg
O=[N+]([O-])c1cc2nc(C(F)(F)F)[nH]c2cc1Cl	5.55 mg/kg
NC(=O)ON=C1CSCCS1	52 mg/kg
Nc1cc2c(S(=O)(=O)O)cccc2c(S(=O)(=O)O)c1N	29000 mg/kg

Structure (SMILES)	LD50
COc1ccc(N)cc1N	460 mg/kg
C=CCNC(=S)Nc1ccccc1	750 mg/kg
Cc1cccc(C(=O)c2ccccc2)c1C	4920 mg/kg
NS(=O)(=O)c1cc(-c2nnn[nH]2)c(NCc2cccs2)cc1Cl	2540 mg/kg
CN(C)CCCOc1nn(Cc2ccccc2)c2ccccc12	740 mg/kg and 950 mg/kg
Clc1ccc(COC(Cn2ccnc2)c2ccc(Cl)cc2Cl)cc1 (centres undefined)	668 mg/kg
CS(=O)(=O)c1ccc2c(c1)N(CCCN1CCC(C(N)=O)CC1)c1ccccc1S2	976 mg/kg
CN1CCC(OC2c3ccccc3CCc3ccccc32)CC1	1500 mg/kg
CC(C=CC=C(C)C(=O)OC1OC(COC2OC(CO)C(O)C(O)C2O)C(O)C(O)C1O)=CC=CC=C(C)C=CC=C(C)C(=O)OC1OC(COC2OC(CO)C(O)C(O)C2O)C(O)C(O)C1O (centres undefined)	3160 mg/kg
Cc1ccccc1CNC1=NCCS1	164 mg/kg
O=[N+]([O-])c1ccc(Oc2c(F)cc(Cl)cc2Cl)cc1	2890 mg/kg
C=CC(O)CC#N (centres undefined)	200 mg/kg
O=C(Cl)c1ccc(Cl)cc1Cl	4640 mg/kg
CCCC1OCS/C1=N\OC(O)=NC (centres undefined)	83 mg/kg
COc1cc([C@@H]2c3cc4c(cc3[C@H](O[C@@H]3O[C@@H]5COC(c6ccccc6)O[C@H]5[C@H](O)[C@H]3O)[C@H]3COC(=O)[C@H]23)OCO4)cc(OC)c1OC (some centres undefined)	823 mg/kg
O=C(O)[C@H](O)[C@@H](O)[C@H](O)[C@H](O)CO	10400 mg/kg
C/C=C/Cl	1950 mg/kg
CCN(CC)NNCCCO	3730 mg/kg
ClC(Cl)(Cl)c1cccc(C(Cl)(Cl)Cl)c1	2920 mg/kg
NC[C@H]1CC[C@H](C(=O)Oc2ccc(CCC(=O)O)cc2)CC1	1500 mg/kg
C=CCN(CC=C)CC=C	1030 mg/kg
C1CCCNCC1	20.7 mg/kg
COP(=S)(OC)SCCSC	75 mg/kg
CN1CCN(CCC=C2c3ccccc3Sc3ccc(S(=O)(=O)N(C)C)cc32)CC1	720 mg/kg
CCSC(C)CC1CC(=O)C(C(=O)CC)C(=O)C1 (centres undefined)	170 mg/kg
CC(=O)OCC(C)OC(C)=O (centres undefined)	13500 mg/kg

Structure (SMILES)	LD50
CCSC(=O)N(CC)CC	400 mg/kg
CC(C)C(Br)C(=O)OC(C)C(Cl)(Cl)Cl (centres undefined)	1200 mg/kg
O=P(O)(O)OC(=CCl)c1ccc(Cl)cc1Cl	13 mg/kg
c1ccc(P(C2CCCCC2)C2CCCCC2)cc1	820 mg/kg
CCOP(=O)(OCC)SCn1nc(C)oc1=O	1 mg/kg
CC(C)c1nnc(NS(=O)(=O)c2ccc(N)cc2)s1	3940 mg/kg
CC(O)CN(CC(C)O)c1nc(Nc2ccc(S(=O)(=O)O)cc2)nc(Nc2ccc(/C=C/c3ccc(Nc4nc(Nc5ccc(S(=O)(=O)O)cc5)nc(N(CC(C)O)CC(C)O)n4)cc3S(=O)(=O)O)c(S(=O)(=O)O)c2)n1 (centres undefined)	12100 mg/kg
CCn1c2c(c3cccc(N)c31)CCCC2	1090 mg/kg
CC(C)NC(=O)N1CC(=O)N(c2cc(Cl)cc(Cl)c2)C1=O	3500 mg/kg
CC(C)Cc1ccc(CC(=O)O)cc1	2300 mg/kg
Cc1ccc(/C(=C\CN2CCCC2)c2ccccn2)cc1	840 mg/kg
ClCC1(CCl)COC1	600 mg/kg
CCC1CN2CCC1CC2C(O)c1ccnc2ccc(OC)cc12 (centres undefined)	369 mg/kg
C#CCOc1ccc(N)cc1C(=O)NCCCC	864 mg/kg
NC(=O)Cc1cccc2ccccc12	1690 mg/kg
NS(=O)(=O)c1ccccc1	991 mg/kg
Cc1cccc(NC(=O)c2ccccc2C(=O)O)c1	5230 mg/kg
CCC(CC)CO	1850 mg/kg
CCCCCCCCCCCCCCCCCC1=NCCN1CCO	3800 mg/kg
CN1C(C(=O)Nc2ccccn2)=C(O)c2ccccc2S1(=O)=O	216 mg/kg
CN(C)N=Nc1ccc(Cl)cc1	362 mg/kg
CNC(=S)/C=C/c1ccc2c(c1)OCO2	230 mg/kg
Nc1nc2cc(I)ccc2o1	1000 mg/kg
c1ccc2c(c1)Sc1ccccc1N2CCCN1CCOCC1	1000 mg/kg
CC(C)Oc1ccccc1[N+](=O)[O-]	2500 mg/kg
CN(CCC#N)CCC#N	890 mg/kg
